Source: patent US9925263B2, “Liquid pharmaceutical formulations for injection comprising procaine and uses thereof” (EAGLE BIOLOGICS, INC., priority 2013, dated 2018)

Key:
Sprague-Dawley rats = experiment: Subcutaneous injection toxicity and irritation (Draize evaluation scores); type: in vivo, rat; settings: 0.5 mL of 0.25 M CSAA subcutaneously, 1 to 3 daily injections
Method: Thirty 11-week old Sprague-Dawley rats were separated into 6 groups of 5 rats each (3 saline control groups and 3 CSAA groups). The rats were injected subcutaneously with 0.5 mL of either endotoxin-free phosphate-buffered saline or endotoxin-free 0.25 M CSAA according to the following schedule: One group from each condition was injected once on day 1 and then sacrificed […]; one group from each condition was injected once on day 1 and once on day 2 and then sacrificed 24 hours after the second injection; and one group from each condition was injected once on day 1, once on day 2, and once on day 3, and then sacrificed 24 hours after the third injection.
Clinical observations were recorded for any pharmaco-toxicological signs pre-dose, immediately post-dose, at 1 and 4 hours (±15 minutes) post-dose, and daily thereafter. Irritation, if any, at injection sites was scored using the Draize evaluation scores pre-dose, immediately post-dose, at 1 hour (±15 minutes) post dose, and prior to sacrifice.

REMICADE® [1] = experiment: Monomer content of […]® solutions by size exclusion chromatography; type: physicochemical; settings: 0.25M agent
Method: Biophysical properties of solutions of […]® formulated with 0.25 M CSAA were assessed over 90 days. Samples of […]® formulated with 0.25 M CSAA were prepared as described in Example 1 above.
(§1) Following reconstitution, the viscosity of each solution was measured using the microfluidic viscometer as described in previous examples. The solutions were then back-loaded into 1 mL BD insulin syringes with 27, 29, or 31 gauge fixed needles. The force required to extrude the concentrated […]® solutions was then measured using an Instron at a rate of displacement equivalent to a fluid flow rate of 3 mL/min. The expelled solution was collected from the syringe and analyzed by size-exclusion chromatography.

REMICADE® [2] = experiment: Syringe extrusion force of concentrated […]® solutions (Instron); type: physicochemical; settings: 1 mL BD insulin syringe, 3 mL/min, REMICADE 224-230 mg/mL, 0.25M agent
Method: as §1

HERCEPTIN® = experiment: Viscosity of aqueous solutions of HERCEPTIN® with viscosity-lowering agents; type: physicochemical; settings: 0.25M salt, 25° C., pH 7.0
Method: All viscosities of well-mixed aqueous mAb solutions were measured using either a mVROC microfluidic viscometer (RheoSense) or a DV2T cone and plate viscometer (Brookfield; “C & P”) after a 5 minute equilibration at 25° C. (unless otherwise indicated). The mVROC viscometer was equipped with an “A” or “B” chip, each manufactured with a 50 micron channel. Typically, 0.10 mL of protein solution was back-loaded into a gastight microlab instrument syringe (Hamilton; 100 μL), affixed to the chip, and measured at multiple flow rates, approximately 20%, 40%, and 60% of the maximum pressure for each chip. […] An average absolute viscosity and standard deviation was then calculated from at least these three measurements. The C & P viscometer was equipped with a CPE40 or CPE52 spindle (cone angle of 0.8° and 3.0°, respectively) and 0.50 mL samples were measured at multiple shear rates between 2 and 400 s^−1. Specifically, samples were measured for 30 seconds each at 22.58, 24.38, 26.25, 28.13, 30, 31.88, 45, 67.5, 90, 112.5, 135, 157.5, 180, 202.5, 247, 270, 292.5, 315, 337.5, 360, 382, 400 s^−1, starting at a shear rate that gave at least 10% torque, and continuing until instrument torque reached 100%. An extrapolated zero-shear viscosity was then determined from a plot of dynamic viscosity versus shear rate for the samples measured on a DV2T cone and plate viscometer. The extrapolated zero-shear viscosities reported are the average and standard deviation of at least three measurements.
(§3) Viscosities were measured using a RheoSense mVROC microfluidic viscometer equipped with an “A” or “B” chip.
Viscosities reported were measured on a RheoSense mVROC microfluidic viscometer.

ARZERRA® = experiment: Viscosity of aqueous solutions of ARZERRA® with viscosity-lowering agents; type: physicochemical; settings: 274 ± 10 mg/mL ARZERRA; 0.25M agent; 25° C., pH 7.0
Text: (§2) (unless otherwise indicated).

REMICADE® [3] = experiment: Viscosity of aqueous solutions of […]® with viscosity-lowering agents; type: physicochemical
REMICADE® [4] = experiment: Monomer content of […]® solutions by size exclusion chromatography; type: physicochemical; settings: storage at room temperature, CSAA sample: REMICADE 219 mg/mL, pH 7, 0.25M CSAA
TYSABRI® = experiment: Viscosity of aqueous solutions of TYSABRI® with viscosity-lowering agents; type: physicochemical; settings: 0.25M agent, 25° C., pH 7.0
Method: All viscosities of well-mixed aqueous mAb solutions were measured using either a mVROC microfluidic viscometer (RheoSense) or a DV2T cone and plate viscometer (Brookfield; “C & P”) after a 5 minute equilibration at 25° C. […] The mVROC viscometer was equipped with an “A” or “B” chip, each manufactured with a 50 micron channel. Typically, 0.10 mL of protein solution was back-loaded into a gastight microlab instrument syringe (Hamilton; 100 μL), affixed to the chip, and measured at multiple flow rates, approximately 20%, 40%, and 60% of the maximum pressure for each chip. […] An average absolute viscosity and standard deviation was then calculated from at least these three measurements. The C & P viscometer was equipped with a CPE40 or CPE52 spindle (cone angle of 0.8° and 3.0°, respectively) and 0.50 mL samples were measured at multiple shear rates between 2 and 400 s^−1. Specifically, samples were measured for 30 seconds each at 22.58, 24.38, 26.25, 28.13, 30, 31.88, 45, 67.5, 90, 112.5, 135, 157.5, 180, 202.5, 247, 270, 292.5, 315, 337.5, 360, 382, 400 s^−1, starting at a shear rate that gave at least 10% torque, and continuing until instrument torque reached 100%. An extrapolated zero-shear viscosity was then determined from a plot of dynamic viscosity versus shear rate for the samples measured on a DV2T cone and plate viscometer. The extrapolated zero-shear viscosities reported are the average and standard deviation of at least three measurements.
as §3
Subsequently, the aqueous drug product was purified, buffer exchanged, concentrated, dried, reconstituted, and analyzed as described in the same manner. Viscosities reported were measured on a RheoSense mVROC microfluidic viscometer.

antigen = experiment: Antigen binding, […]®-specific ELISA assay; settings: storage at room temperature, CSAA sample: REMICADE 219 mg/mL, pH 7, 0.25M CSAA
Method: Biophysical properties of solutions of […]® formulated with 0.25 M CSAA were assessed over 90 days. Samples of […]® formulated with 0.25 M CSAA were prepared as described in Example 1 above. […] (Table 20). Additionally, antigen binding of this processed […]® protein was measured with a […]®-specific ELISA assay and no decrease in binding was seen between days 0 and […] (Table 20).

VECTIBIX® = experiment: Viscosity of aqueous solutions of VECTIBIX® with viscosity-lowering agents; type: physicochemical; settings: 0.25M agent, 25° C., pH 7.0
Text: as §2

biosimilar RITUXAN® = experiment: Viscosity of aqueous solutions of biosimilar RITUXAN® with viscosity-lowering agents; settings: 202 ± 2 mg/mL RITUXAN; 0.25M agent; 25° C., pH 7.0;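 further: absolute viscosity of aqueous antibody solutions determined by microfluidic viscometry (mVROC chip, 50 micron channel) at several flow rates after 5 min equilibration, mean of at least three readings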
biosimilar ERBITUX® = experiment: Viscosity of aqueous solutions of biosimilar ERBITUX® with viscosity-lowering agents; settings: for Viscosity / Fold Reduction: pH 7.0, 0.25M agent; for Fold Reduction: vs phosphate buffer
biosimilar AVASTIN® = experiment: Viscosity of aqueous solutions of biosimilar AVASTIN® with viscosity-lowering agents; type: physicochemical

Substance: camphorsulfonic acid arginine [CSAA]
- Microscopic examination of injection sites (Sprague-Dawley rats; no longer evident by day 4): very minor, clinically insignificant, irritative effect
- Observed consequences of the injections compared with saline (Sprague-Dawley rats; throughout the study): macroscopically similar
- Edema scores (Draize) at injection sites (Sprague-Dawley rats; various time points): 0-2
- % Monomer (REMICADE® [1]; expelled through 27 gauge needle, REMICADE 224-230 mg/mL (per agent)): 99.5 ± 0.1%
- % Monomer (REMICADE® [1]; expelled through 29 gauge needle, REMICADE 224-230 mg/mL (per agent)): 99.4 ± 0.2%
- % Monomer (REMICADE® [1]; expelled through 31 gauge needle, REMICADE 224-230 mg/mL (per agent)): 99.5 ± 0.2%
- % Monomer (REMICADE® [1]; pre-syringe, REMICADE 220-230 mg/mL (per agent)): 99.7 ± 0.3%
- Syringe Force (REMICADE® [2]; 27 gauge needle): 18.4 N
- Syringe Force (REMICADE® [2]; 29 gauge needle): 24.9 N
- Syringe Force (REMICADE® [2]; 31 gauge needle): 33.0 N
- Viscosity (HERCEPTIN®; 216 ± 0 mg/mL HERCEPTIN): 55.7 ± 2.3 cP
- Viscosity (HERCEPTIN®; 254 ± 3 mg/mL HERCEPTIN): 78.0 ± 8.7 cP
- Viscosity (HERCEPTIN®; 270 ± 6 mg/mL HERCEPTIN): 96.7 ± 4.7 cP
- Viscosity (ARZERRA®): 125 ± 7 cP
- Viscosity (REMICADE® [3]; 128 mg/mL REMICADE, isotonic (0.3 molal) excipient): 25.8 ± 0.8 cP
- Viscosity reduction (REMICADE® [3]; 0.25M agent vs PB, Table 17): about 29 fold
- Viscosity (REMICADE® [3]; 166 ± 4 mg/mL REMICADE, 0.25M agent, 25° C., pH 7.0): 19.1 ± 0.2 cP
- Viscosity (REMICADE® [3]; 215 ± 5 mg/mL REMICADE, [CSAA] 0 M, 25° C., pH 7.0): 1557 ± 22 cP
- Viscosity (REMICADE® [3]; 215 ± 5 mg/mL REMICADE, [CSAA] 0.20 M, 25° C., pH 7.0): 81.3 ± 1.0 cP
- Viscosity (REMICADE® [3]; 215 ± 5 mg/mL REMICADE, [CSAA] 0.25 M, 25° C., pH 7.0): 53.7 ± 9.3 cP
- Viscosity (REMICADE® [3]; 215 ± 5 mg/mL REMICADE, [CSAA] 0.35 M, 25° C., pH 7.0): 38.2 ± 0.9 cP
- Viscosity (REMICADE® [3]; 222 ± 6 mg/mL REMICADE, 0.25M agent, 25° C., pH 7.0): 53.7 ± 9.3 cP
- % Monomer (REMICADE® [4]; day 0): 99.9 ± 0.1%
- % Monomer (REMICADE® [4]; day 4): 97.9 ± 0%
- % Monomer (REMICADE® [4]; day 7): 100 ± 0%
- Viscosity (TYSABRI®; 237 ± 4 mg/mL TYSABRI): 47.1 ± 2.1 cP
- Viscosity (TYSABRI®; 276 ± 8 mg/mL TYSABRI): 92.9 ± 2.6 cP
- % binding (normalized to drug product) (antigen; day 0): 88.6 ± 5.2%
- % binding (normalized to drug product) (antigen; day 7): 114 ± 2.4%
- Viscosity (VECTIBIX®; 264 mg/mL VECTIBIX): 44.3 ± 2.3 cP
- Viscosity (VECTIBIX®; 233 ± 4 mg/mL VECTIBIX): 26.2 ± 6.5 cP
- Viscosity (VECTIBIX®; 252 ± 3 mg/mL VECTIBIX): 27.4 ± 1.2 cP
- Viscosity (VECTIBIX®; 291 ± 3 mg/mL VECTIBIX): 162 ± 1 cP
- Viscosity (biosimilar RITUXAN®): 78.4 ± 0.3
- pH of viscosity minimum (biosimilar ERBITUX®; 0.25 M CSAA, 202±5, 229±5, 253±4 mg/mL mAb, 25° C., FIG. 5): ~7.0
- Viscosity (biosimilar ERBITUX®; 222 ± 5 mg/mL mAb, 25° C.): 52.5 ± 1.0 cP
- Viscosity (biosimilar ERBITUX®; 225 ± 5 mg/mL mAb, 20° C.): 79.6 ± 0.9 cP
- Viscosity (biosimilar ERBITUX®; 225 ± 5 mg/mL mAb, 25° C.): 58.0 ± 0.3 cP
- Viscosity (biosimilar ERBITUX®; 225 ± 5 mg/mL mAb, 30° C.): 46.9 ± 0.6 cP
- Fold Reduction (biosimilar ERBITUX®; 222 ± 5 mg/mL mAb, 25° C.): 21.5 fold
- Fold Reduction (biosimilar ERBITUX®; 222 ± 5 mg/mL mAb, 25° C., listed as CSA Arginine): 21.5 fold
- Viscosity (biosimilar AVASTIN®; 200 ± 5 mg/mL mAb, pH 7.0, 25° C., [Salt] 0.25 M of anion, C & P viscometer): 48.5 ± 1.9 cP
- pH of minimum viscosity and maximum viscosity-lowering effect (biosimilar AVASTIN®; 200±9 mg/mL mAb, 0.25 M CSAA, FIG. 3): ~7
- Viscosity (biosimilar AVASTIN®; 228 ± 5 mg/mL mAb, agent 0.25 M, 25° C., pH 7.0): 116 ± 2 cP
